According to patent publication US10894784B2, “Heteroarylbenzimidazole compounds” (BAYER PHARMA AKTIENGESELLSCHAFT, priority 2015, dated 2021):

Each molecule was assayed against TBK1 (Homo sapiens (Human), UniProt Q9UHD2) (assay: TBK1 low ATP kinase assay (in vitro assay 1)). Settings: in vitro assay 1, read-out: TBK1 low ATP kinase assay IC50.
Type: biochemical

TBK1, sequence (Q9UHD2 whole entry): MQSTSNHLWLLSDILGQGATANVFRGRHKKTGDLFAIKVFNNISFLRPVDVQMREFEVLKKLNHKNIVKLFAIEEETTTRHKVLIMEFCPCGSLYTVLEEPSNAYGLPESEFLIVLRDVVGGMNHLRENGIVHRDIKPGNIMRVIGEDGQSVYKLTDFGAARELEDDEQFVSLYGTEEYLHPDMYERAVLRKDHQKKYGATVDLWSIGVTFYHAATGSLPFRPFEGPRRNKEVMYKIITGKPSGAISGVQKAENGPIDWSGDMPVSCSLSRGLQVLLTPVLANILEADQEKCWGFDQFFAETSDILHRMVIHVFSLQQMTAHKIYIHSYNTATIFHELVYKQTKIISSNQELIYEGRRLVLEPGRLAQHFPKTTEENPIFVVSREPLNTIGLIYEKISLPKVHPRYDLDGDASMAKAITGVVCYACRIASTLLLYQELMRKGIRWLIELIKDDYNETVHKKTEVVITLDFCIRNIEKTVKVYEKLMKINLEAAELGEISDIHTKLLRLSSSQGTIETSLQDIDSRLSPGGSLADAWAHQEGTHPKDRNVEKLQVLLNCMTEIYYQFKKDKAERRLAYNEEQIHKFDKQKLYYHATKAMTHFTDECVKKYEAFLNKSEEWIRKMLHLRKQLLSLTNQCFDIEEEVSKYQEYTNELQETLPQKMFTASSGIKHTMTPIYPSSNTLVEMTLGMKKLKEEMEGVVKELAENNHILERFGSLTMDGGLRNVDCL

Row | SMILES | IC50
1 | COc1ncccc1-c1ccc2nc(Nc3cc(CN4CCN(C(=O)CC5CC5)CC4)ccn3)[nH]c2c1 [Example 15.02, 2-cyclopropyl-1-{4-[(2-{[6-(2-methoxypyridin-3-yl)-1H-benzimidazol-2-yl]amino}pyridin-4-yl)methyl]piperazin-1-yl}ethanone] | 0.401 µM
2 | COc1ncccc1-c1ccc2nc(Nc3cc(CN4CCN(C(=O)C5CC5)CC4)ccn3)[nH]c2c1 [Example 15.03, cyclopropyl{4-[(2-{[6-(2-methoxypyridin-3-yl)-1H-benzimidazol-2-yl]amino}pyridin-4-yl)methyl]piperazin-1-yl}methanone] | 3.81 µM
3 | Cc1noc(-c2ccc3nc(Nc4cc(CN5CCN(C(=O)OC(C)(C)C)CC5)ccn4)[nH]c3c2)n1 [Example 16.01.01, tert-butyl 4-[(2-{[6-(3-methyl-1,2,4-oxadiazol-5-yl)-1H-benzimidazol-2-yl]amino}pyridin-4-yl)methyl]piperazine-1-carboxylate] | 0.23 µM
4 | Cc1noc(-c2ccc3nc(Nc4cc(CN5CCN(C(=O)CC(F)(F)F)CC5)ccn4)[nH]c3c2)n1 [Example 16.01.02, 3,3,3-trifluoro-1-{4-[(2-{[6-(3-methyl-1,2,4-oxadiazol-5-yl)-1H-benzimidazol-2-yl]amino}pyridin-4-yl)methyl]piperazin-1-yl}propan-1-one] | 0.109 µM
5 | Cc1noc(-c2ccc3nc(Nc4cc(CN5CCN(C(=O)CC6CC6)CC5)ccn4)[nH]c3c2)n1 [Example 16.01.03, 2-cyclopropyl-1-{4-[(2-{[6-(3-methyl-1,2,4-oxadiazol-5-yl)-1H-benzimidazol-2-yl]amino}pyridin-4-yl)methyl]piperazin-1-yl}ethanone] | 0.115 µM
6 | Cc1noc(-c2ccc3nc(Nc4cc(CN5CCN(C(=O)C6CC6)CC5)ccn4)[nH]c3c2)n1 [Example 16.01.04, cyclopropyl{4-[(2-{[6-(3-methyl-1,2,4-oxadiazol-5-yl)-1H-benzimidazol-2-yl]amino}pyridin-4-yl)methyl]piperazin-1-yl}methanone] | 0.067 µM
7 | Cc1noc(-c2ccc3nc(Nc4cc(CN5CCN(C(=O)C6CCC6)CC5)ccn4)[nH]c3c2)n1 [Example 16.01.05, cyclobutyl{4-[(2-{[6-(3-methyl-1,2,4-oxadiazol-5-yl)-1H-benzimidazol-2-yl]amino}pyridin-4-yl)methyl]piperazin-1-yl}methanone] | 0.146 µM
8 | Cc1noc(-c2ccc3nc(Nc4cc(CN5C[C@@H](C)N(C(=O)OC(C)(C)C)C[C@@H]5C)ccn4)[nH]c3c2)n1 [Example 16.02.01, tert-butyl (2R,5S)-2,5-dimethyl-4-[(2-{[6-(3-methyl-1,2,4-oxadiazol-5-yl)-1H-benzimidazol-2-yl]amino}pyridin-4-yl)methyl]piperazine-1-carboxylate] | 2.26 µM
9 | Cc1noc(-c2ccc3nc(Nc4cc(CN5C[C@@H](C)N(C(=O)CC(F)(F)F)C[C@@H]5C)ccn4)[nH]c3c2)n1 [Example 16.02.02, 1-{(2R,5S)-2,5-dimethyl-4-[(2-{[6-(3-methyl-1,2,4-oxadiazol-5-yl)-1H-benzimidazol-2-yl]amino}pyridin-4-yl)methyl]piperazin-1-yl}-3,3,3-trifluoropropan-1-one] | 0.335 µM
10 | Cc1noc(-c2ccc3nc(Nc4cc(CN5C[C@@H](C)N(C(=O)CC6CC6)C[C@@H]5C)ccn4)[nH]c3c2)n1 [Example 16.02.03, 2-cyclopropyl-1-{(2R,5S)-2,5-dimethyl-4-[(2-{[6-(3-methyl-1,2,4-oxadiazol-5-yl)-1H-benzimidazol-2-yl]amino}pyridin-4-yl)methyl]piperazin-1-yl}ethanone] | 0.227 µM
11 | Cc1noc(-c2ccc3nc(Nc4cc(CN5C[C@@H](C)N(C(=O)C6CC6)C[C@@H]5C)ccn4)[nH]c3c2)n1 [Example 16.02.04, cyclopropyl{(2R,5S)-2,5-dimethyl-4-[(2-{[6-(3-methyl-1,2,4-oxadiazol-5-yl)-1H-benzimidazol-2-yl]amino}pyridin-4-yl)methyl]piperazin-1-yl}methanone] | 0.268 µM
12 | Cc1noc(-c2ccc3nc(Nc4cc(CN5C[C@@H](C)N(C(=O)C6CCC6)C[C@@H]5C)ccn4)[nH]c3c2)n1 [Example 16.02.05, cyclobutyl{(2R,5S)-2,5-dimethyl-4-[(2-{[6-(3-methyl-1,2,4-oxadiazol-5-yl)-1H-benzimidazol-2-yl]amino}pyridin-4-yl)methyl]piperazin-1-yl}methanone] | 0.405 µM
13 | Cc1noc(-c2ccc3nc(Nc4cc(CN5CCN(C(=O)CC(F)(F)F)CC5(C)C)ccn4)[nH]c3c2)n1 [Example 16.04.02, 1-{3,3-dimethyl-4-[(2-{[6-(3-methyl-1,2,4-oxadiazol-5-yl)-1H-benzimidazol-2-yl]amino}pyridin-4-yl)methyl]piperazin-1-yl}-3,3,3-trifluoropropan-1-one] | 0.496 µM
14 | Cc1noc(-c2ccc3nc(Nc4cc(CN5CCN(C(=O)CC6CC6)CC5(C)C)ccn4)[nH]c3c2)n1 [Example 16.04.03, 2-cyclopropyl-1-{3,3-dimethyl-4-[(2-{[6-(3-methyl-1,2,4-oxadiazol-5-yl)-1H-benzimidazol-2-yl]amino}pyridin-4-yl)methyl]piperazin-1-yl}ethanone] | 0.378 µM

The remaining molecules from weak to strong by IC50, led by results:

Row | IC50 | SMILES
15 | 0.208 µM | Cc1noc(-c2ccc3nc(Nc4cc(CN5CCN(C(=O)C(C)(C)C)CC5)ccn4)[nH]c3c2)n1 [Example 16.01.06, 2,2-dimethyl-1-{4-[(2-{[6-(3-methyl-1,2,4-oxadiazol-5-yl)-1H-benzimidazol-2-yl]amino}pyridin-4-yl)methyl]piperazin-1-yl}propan-1-one]
16 | 0.125 µM | Cc1noc(-c2ccc3nc(Nc4cc(CN5CCN(C(=O)OC(C)(C)C)C[C@H]5C)ccn4)[nH]c3c2)n1 [Example 16.03.01, tert-butyl (3R)-3-methyl-4-[(2-{[6-(3-methyl-1,2,4-oxadiazol-5-yl)-1H-benzimidazol-2-yl]amino}pyridin-4-yl)methyl]piperazine-1-carboxylate]
17 | 0.0847 µM | Cc1noc(-c2ccc3nc(Nc4cc(CN5CCN(C(=O)C6CCC6)C[C@H]5C)ccn4)[nH]c3c2)n1 [Example 16.03.05, cyclobutyl{(3R)-3-methyl-4-[(2-{[6-(3-methyl-1,2,4-oxadiazol-5-yl)-1H-benzimidazol-2-yl]amino}pyridin-4-yl)methyl]piperazin-1-yl}methanone]
18 | 0.067 µM | Cc1noc(-c2ccc3nc(Nc4cc(CN5CCN(C(=O)CC6CC6)C[C@H]5C)ccn4)[nH]c3c2)n1 [Example 16.03.03, 2-cyclopropyl-1-{(3R)-3-methyl-4-[(2-{[6-(3-methyl-1,2,4-oxadiazol-5-yl)-1H-benzimidazol-2-yl]amino}pyridin-4-yl)methyl]piperazin-1-yl}ethanone]
19 | 0.0631 µM | Cc1noc(-c2ccc3nc(Nc4cc(CN5CCN(C(=O)CC(F)(F)F)C[C@H]5C)ccn4)[nH]c3c2)n1 [Example 16.03.02, 3,3,3-trifluoro-1-{(3R)-3-methyl-4-[(2-{[6-(3-methyl-1,2,4-oxadiazol-5-yl)-1H-benzimidazol-2-yl]amino}pyridin-4-yl)methyl]piperazin-1-yl}propan-1-one]
20 | 0.0546 µM | Cc1noc(-c2ccc3nc(Nc4cc(CN5CCN(C(=O)C6CC6)C[C@H]5C)ccn4)[nH]c3c2)n1 [Example 16.03.04, cyclopropyl{(3R)-3-methyl-4-[(2-{[6-(3-methyl-1,2,4-oxadiazol-5-yl)-1H-benzimidazol-2-yl]amino}pyridin-4-yl)methyl]piperazin-1-yl}methanone]
